The structures appear in SMILES notation.

Experimental findings from patent US20260265233A1, “BENZOTHIOPHENE DERIVATIVES AS RXFP1 AGONISTS” (BRISTOL-MYERS SQUIBB COMPANY, priority 2021, published 2026) are described below.

The experiment concerns the target T1, human RXFP1 (Homo sapiens, UniProt Q9HBX9).
T1 construct: expressed in transfected cells
T1 sequence (Q9HBX9 1-757): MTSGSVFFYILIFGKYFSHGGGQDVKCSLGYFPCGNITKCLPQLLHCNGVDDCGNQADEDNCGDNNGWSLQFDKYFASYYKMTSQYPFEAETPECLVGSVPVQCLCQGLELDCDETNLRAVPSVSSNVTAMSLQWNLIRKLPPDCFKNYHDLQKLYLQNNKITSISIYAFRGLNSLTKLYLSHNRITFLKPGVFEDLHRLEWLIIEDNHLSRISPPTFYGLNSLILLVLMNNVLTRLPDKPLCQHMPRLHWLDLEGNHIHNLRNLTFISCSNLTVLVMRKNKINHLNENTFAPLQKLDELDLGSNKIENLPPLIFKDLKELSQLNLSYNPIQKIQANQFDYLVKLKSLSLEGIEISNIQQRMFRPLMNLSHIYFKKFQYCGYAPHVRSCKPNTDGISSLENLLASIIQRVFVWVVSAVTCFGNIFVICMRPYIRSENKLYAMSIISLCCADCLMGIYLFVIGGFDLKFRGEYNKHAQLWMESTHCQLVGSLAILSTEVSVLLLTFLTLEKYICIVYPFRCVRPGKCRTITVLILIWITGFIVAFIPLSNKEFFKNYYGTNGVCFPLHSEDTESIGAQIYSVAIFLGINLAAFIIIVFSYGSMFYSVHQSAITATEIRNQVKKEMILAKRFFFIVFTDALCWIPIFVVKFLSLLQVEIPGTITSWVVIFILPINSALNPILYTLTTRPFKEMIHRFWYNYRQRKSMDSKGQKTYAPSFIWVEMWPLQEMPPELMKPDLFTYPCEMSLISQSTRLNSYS
Put plainly: hRXFP1 HEK293 cAMP assay (HTRF). The following applies: HEK293 cells stably expressing human RXFP1; 30 min at rt; intracellular cAMP by HTRF. Format: cell-based. Put shortly: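 HEK293 cells stably expressing human RXFP1 treated 30 min at rt with compound (0.010 nM to 50 μM, 2% DMSO) in HBSS/HEPES buffer with 0.5 mM IBMX. Intracellular cAMP measured by HTRF (665/590 nm ratio) against a cAMP standard curve; potency fitted by 4-parameter logistic.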
In turn, `O=C(Nc1c(C(=O)Nc2ccc(F)c(C(F)(F)F)c2)sc2cc(C(F)(F)F)ccc12)c1cc(C2=NOC3COCC23)ccc1F` (stereo not shown) [Example 256, 3-(5-{3aH,4H,6H,6aH-furo[3,4-d][1,2]oxazol-3-yl}-2-fluorobenzamido)-N-[4-fluoro-3-(trifluoromethyl)phenyl]-6-(trifluoromethyl)-1-benzothiophene-2-carboxamide] had an EC50 of 239 nM.
Turning to `COc1ccc(S(=O)(=O)N2CCC[C@@H](NC(=O)CCO)C2)cc1C(=O)Nc1c(C(=O)Nc2ccc(F)c(C(F)(F)F)c2)sc2cc(C(F)(F)F)ccc12` [Example 189, (R)-N-(4-fluoro-3-(trifluoromethyl)phenyl)-3-(5-((3-(3-hydroxy-propanamido)piperidin-1-yl)sulfonyl)-2-methoxy-benzamido)-6-(trifluoromethyl) benzo[b] thiophene-2-carboxamide], the 50% effective concentration (EC50) stood at 491 nM.
Molecule `COc1ccc(C2CCN(C3COC3)C2)cc1C(=O)Nc1c(C(=O)Nc2ccc(F)c(C(F)(F)F)c2)sc2cc(C(F)(F)F)ccc12` (stereo not shown) [Example 142, N-(4-fluoro-3-(trifluoromethyl)phenyl)-3-(2-methoxy-5-(1-(oxetan-3-yl)pyrrolidin-3-yl)benzamido)-6-(trifluoromethyl) benzo[b] thiophene-2-carboxamide] showed a concentration giving a half-maximal response (EC50) of 619 nM.
Take `COc1ccc(C2CC2CO)cc1C(=O)Nc1c(C(=O)Nc2ccc(F)c(C(F)(F)F)c2)sc2cc(C(F)(F)F)ccc12` (stereo not shown) [Example 49, N-(4-fluoro-3-(trifluoromethyl)phenyl)-3-(5-(2-(hydroxymethyl)cyclopropyl)-2-methoxybenzamido)-6-(trifluoromethyl) benzo[b]thiophene-2-carboxamide]: the midpoint of the response, the EC50, lay at 617 nM.
To `COc1ncc(N2CCCC(CO)C2)cc1C(=O)Nc1c(C(=O)Nc2ccc(F)c(C(F)(F)F)c2)sc2cc(C(F)(F)F)ccc12` (stereo not shown) [Example 11, N-(2-((4-fluoro-3-(trifluoromethyl)phenyl)carbamoyl)-6-(trifluoromethyl)benzo[b]thiophen-3-yl)-5-(3-(hydroxymethyl)piperidin-1-yl)-2-methoxynicotinamide] belongs 2540 nM; to `COc1ccc(N2CCCC(C(=O)NCCO)C2)cc1C(=O)Nc1c(C(=O)Nc2ccc(F)c(C(F)(F)F)c2)sc2cc(C(F)(F)F)ccc12` (single isomer, unassigned) [Example 231, 1-(3-((2-((4-fluoro-3-(trifluoromethyl)phenyl)carbamoyl)-6-(trifluoromethyl)benzo[b]thiophen-3-yl)carbamoyl)-4-methoxyphenyl)-N-(2-hydroxyethyl) piperidine-3-carboxamide], 1680 nM.
On to `COc1ccc(-c2cc(CN)ccc2F)cc1C(=O)Nc1c(C(=O)Nc2ccc(F)c(C(F)(F)F)c2)sc2cc(C(F)(F)F)ccc12` [Example 16, 3-(5′-(aminomethyl)-2′-fluoro-4-methoxy-[1,1′-biphenyl]-3-carboxamido)-N-(4-fluoro-3-(trifluoromethyl)phenyl)-6-(trifluoromethyl)benzo[b]thiophene-2-carboxamide], for which it took 677 nM to reach a half-maximal effect (EC50).
`COc1ccc(C2=NOC3CC(NC(=O)CO)CC23)cc1C(=O)Nc1c(C(=O)Nc2ccc(F)c(C(F)(F)F)c2)sc2cc(C(F)(F)F)ccc12` (stereo not shown) [Example 261, N-[4-fluoro-3-(trifluoromethyl)phenyl]-3-{5-[5-(2-hydroxy-acetamido)-3aH,4H,5H,6H, 6aH-cyclopenta[d] [1,2]oxazol-3-yl]-2-methoxy-benzamido}-6-(trifluoromethyl)-1-benzothiophene-2-carboxamide]: the EC50 was found to be 90.7 nM.
As to `COC(=O)C(=O)N1CCCC(c2ccc(OC)c(C(=O)Nc3c(C(=O)Nc4ccc(F)c(C(F)(F)F)c4)sc4cc(C(F)(F)F)ccc34)c2)C1` (stereo not shown) [Example 80, methyl 2-(3-(3-((2-((4-fluoro-3-(trifluoromethyl)phenyl)carbamoyl)-6-(trifluoromethyl)benzo[b]thiophen-3-yl)carbamoyl)-4-methoxyphenyl)piperidin-1-yl)-2-oxoacetate], it took 237 nM to reach a half-maximal effect (EC50).
For the molecule `COc1cc(C)c(C(=O)NCC2(S(C)(=O)=O)CC2)cc1C(=O)Nc1c(C(=O)Nc2ccc(F)c(C(F)(F)F)c2)sc2cc(C(F)(F)F)ccc12` [Example 187, N1-(2-((4-fluoro-3-(trifluoromethyl)phenyl)carbamoyl)-6-(trifluoromethyl)benzo[b]thiophen-3-yl)-6-methoxy-4-methyl-N3-((1-(methylsulfonyl)cyclopropyl)methyl) isophthalamide], the EC50 turned out to be 328 nM.
For the molecule `COc1ccc(-c2cc(S(=O)(=O)NC(C)(C)C)ccc2F)cc1C(=O)Nc1c(C(=O)Nc2ccc(F)c(C(F)(F)F)c2)sc2cc(C(F)(F)F)ccc12` [Example 111, 3-(5′-(N-(tert-butyl)sulfamoyl)-2′-fluoro-4-methoxy-[1,1′-biphenyl]-3-carboxamido)-N-(4-fluoro-3-(trifluoromethyl)phenyl)-6-(trifluoromethyl) benzo[b] thiophene-2-carboxamide], the EC50 amounted to 28.3 nM.
The molecule `COc1ccc(C2CCCC(O)C2)cc1C(=O)Nc1c(C(=O)Nc2ccc(F)c(C(F)(F)F)c2)sc2cc(C(F)(F)F)ccc12` (single isomer, unassigned) [Example 32, N-(4-fluoro-3-(trifluoromethyl)phenyl)-3-(5-(3-hydroxycyclohexyl)-2-methoxybenzamido)-6-(trifluoromethyl)benzo[b]thiophene-2-carboxamide] registered an EC50 of 718 nM.
The molecule `COc1ccc(C2=NOC3CNCC23)cc1C(=O)Nc1c(C(=O)Nc2ccc(F)c(C(F)(F)F)c2)sc2cc(C(F)(F)F)ccc12` (stereo not shown) [Example 246, N-(4-fluoro-3-(trifluoromethyl)phenyl)-3-(2-methoxy-5-(3a,5,6,6a-tetrahydro-4H-pyrrolo[3,4-d]isoxazol-3-yl)benzamido)-6-(trifluoromethyl) benzo[b] thiophene-2-carboxamide] displayed an EC50 of 724 nM.
The molecule `COc1ccc(C2=NOC3(C2)CN(C(=O)CO)C3)cc1C(=O)Nc1c(C(=O)Nc2ccc(F)c(C(F)(F)F)c2)sc2cc(C(F)(F)F)ccc12` [Example 285, N-(4-fluoro-3-(trifluoromethyl)phenyl)-3-(5-(2-(2-hydroxyacetyl)-5-oxa-2,6-diazaspiro[3.4]oct-6-en-7-yl)-2-methoxy-benzamido)-6-(trifluoromethyl) benzo[b] thiophene-2-carboxamide] yielded an EC50 of 1860 nM.
Then `COc1ccc(C2CC3(C2)CN(C(=O)CC(C)(C)O)C3)cc1C(=O)Nc1c(C(=O)Nc2ccc(F)c(C(F)(F)F)c2)sc2cc(C(F)(F)F)ccc12` [Example 109, N-(4-fluoro-3-(trifluoromethyl)phenyl)-3-(5-(2-(3-hydroxy-3-methylbutanoyl)-2-azaspiro[3.3]heptan-6-yl)-2-methoxy-benzamido)-6-(trifluoromethyl) benzo[b] thiophene-2-carboxamide], with 509 nM; and `COc1ccc(C2CCN(C(=O)CO)C2)cc1C(=O)Nc1c(C(=O)Nc2ccc(F)c(C(F)(F)F)c2)sc2cc(C(F)(F)F)ccc12` (stereo not shown) [Example 141, N-(4-fluoro-3-(trifluoromethyl)phenyl)-3-(5-(1-(2-hydroxyacetyl)pyrrolidin-3-yl)-2-methoxy-benzamido)-6-(trifluoromethyl) benzo[b] thiophene-2-carboxamide], with 400 nM.
Turning to `COc1ccc(C2CCCC(C)(O)C2)cc1C(=O)Nc1c(C(=O)Nc2ccc(F)c(C(F)(F)F)c2)sc2cc(C(F)(F)F)ccc12` (single isomer, unassigned) [Example 34, N-(4-fluoro-3-(trifluoromethyl)phenyl)-3-(5-(3-hydroxy-3-methylcyclohexyl)-2-methoxybenzamido)-6-(trifluoromethyl)benzo[b]thiophene-2-carboxamide], the EC50 was 850 nM.
`COc1cc(F)c(C(=O)NCC2(S(C)(=O)=O)CC2)cc1C(=O)Nc1c(C(=O)Nc2ccc(F)c(C(F)(F)F)c2)sc2cc(C(F)(F)F)ccc12` [Example 186, 4-fluoro-N1-(2-((4-fluoro-3-(trifluoromethyl)phenyl)carbamoyl)-6-(trifluoromethyl)benzo[b]thiophen-3-yl)-6-methoxy-N3-((1-(methylsulfonyl)cyclopropyl)methyl) isophthalamide] had an EC50 of 102 nM.
In turn, `COc1ccc(C2CCN(S(C)(=O)=O)C2)cc1C(=O)Nc1c(C(=O)Nc2ccc(F)c(C(F)(F)F)c2)sc2cc(C(F)(F)F)ccc12` (stereo not shown) [Example 148, N-(4-fluoro-3-(trifluoromethyl)phenyl)-3-(2-methoxy-5-(1-(methylsulfonyl)pyrrolidin-3-yl)benzamido)-6-(trifluoromethyl) benzo[b] thiophene-2-carboxamide] displayed an EC50 of 2240 nM.
